Assay results as given in patent publication US10940139B2, “Compounds that interact with the Ras superfamily for the treatment of cancers, inflammatory diseases, rasopathies, and fibrotic disease” (Shy Therapeutics LLC, priority 2017, dated 2021).

Legend:
[1] = tested on: TNFα production in RAW 264.7 macrophage cell line; experiment: Mouse TNF alpha quantification assay (LPS-stimulated macrophages, ELISA); assay type: cell-based; details: RAW264.7, RAW 264.7 murine leukemia virus transformed macrophage cell lines, LPS stimulation, read-out: TNF-α % Inhibition at 30 μM
[2] = tested on: IL6 production in RAW 264.7 macrophage cell line; experiment: Mouse IL6 quantification assay (LPS-stimulated macrophages, ELISA); assay type: cell-based; details: RAW264.7, RAW 264.7 murine leukemia virus transformed macrophage cell lines, LPS stimulation, read-out: IL-6 % Inhibition at 30 μM

| Structure (SMILES) | inhibition at 30 µM [1] [%] | inhibition at 30 µM [2] [%] |
| --- | --- | --- |
| FC(F)(F)Sc1ccc(Cc2ccc(SC(F)(F)F)cc2)cc1 [drawing 2051] | 0 | 1 to 25 |
| CCCCSc1nc(-c2cccs2)c(C(=O)C(F)(F)F)cc1C#N [drawing 2053] | 0 | 51 to 75 |
| CCC(C)(C)c1ccc(OCCCC(=O)NC(C(=O)OC)C(C)C)c(C(C)(C)CC)c1 (stereo not drawn) [drawing 2054] | 26 to 50 | 26 to 50 |
| Oc1ccc(C2(c3cccc(Cl)c3)CCCC2)cc1 [drawing 2055] | 76 to 100 | 76 to 100 |
| Cc1ccc(-c2ccc(Oc3ccc(C(F)(F)F)cn3)c(C)c2)cc1 [drawing 2056] | 1 to 25 | 0 |
| CCOc1cc(C(=O)Oc2c(C)ccc(C)c2C)cc(OCC)c1OCC [drawing 2057] | 1 to 25 | 51 to 75 |
| COC(=O)c1ccc(C(=O)NCC2(c3ccccc3OC)CCCC2)nc1 [drawing 2058] | 1 to 25 | 0 |
| CCOc1cc(S(=O)(=O)N(Cc2ccccc2)Cc2ccccc2)c(OCC)cc1C [drawing 2059] | 1 to 25 | 1 to 25 |
| COc1ccc(CN(CC[S+]([O-])c2cc(Cl)ccc2Cl)C2CC2)cc1 (stereo not drawn) [drawing 2060] | 1 to 25 | 0 |
| CCCOc1ccc2ccccc2c1CN(C)S(=O)(=O)N1CC(C)OC(C)C1 (stereo not drawn) [drawing 2061] | 51 to 75 | 1 to 25 |
| O=S(=O)(Oc1cc(C(F)(F)F)cc(C(F)(F)F)c1)N1CCc2ccccc2C1 [drawing 2062] | 0 | 51 to 75 |
| COC(=O)C(C)CN(Cc1cc(Br)ccc1[N+](=O)[O-])C1CC1 (stereo not drawn) [drawing 2063] | 0 | 26 to 50 |
| CC(C1CC1)N(CC(F)(F)F)C(=O)Cc1ccc(-c2ccccc2)cc1 (stereo not drawn) [drawing 2064] | 1 to 25 | 1 to 25 |
| COC(=O)C(C)CN(Cc1ccccc1)c1nc(C(F)(F)F)ccc1C#N (stereo not drawn) [drawing 2065] | 0 | 26 to 50 |
| CCN(CC)S(=O)(=O)c1ccc(NCCOC)c(C(=O)NCCSCc2ccc(C)cc2)c1 [drawing 2066] | 26 to 50 | 26 to 50 |
| CSc1nc(C2CC2)cc(C(=O)NCCc2ccc(S(=O)(=O)NC(=O)c3cc(C4CC4)nc(SC)c3C#N)cc2)c1C#N [drawing 2067] | 26 to 50 | 1 to 25 |
| CC(C)C1=C(O)C2(CC2c2ccc(-c3ccccc3)cc2)C(C)CC1 (stereo not drawn) [drawing 2068] | 1 to 25 | 0 |
| Cc1cccc(C)c1OCCOC(=O)c1ccccc1SCCOc1c(C)cccc1C [drawing 2069] | 0 | 1 to 25 |
| Oc1nc(-c2ccccn2)nc2c1CCCN2 [drawing 2070] | 1 to 25 | 26 to 50 |
| O=C(COc1ccccc1)N1CCCc2c(O)nc(-c3ccccn3)nc21 [drawing 2071] | 1 to 25 | 76 to 100 |
| COc1ccc(COCC(=O)N2CCCc3c(O)nc(-c4ccccn4)nc32)cc1 [drawing 2072] | 1 to 25 | 51 to 75 |
| COc1ccc(CCC(=O)N2CCCc3c(O)nc(-c4ccccn4)nc32)cc1 [drawing 2073] | 26 to 50 | 76 to 100 |

| Structure (SMILES) | inhibition at 30 µM [1] [%] | inhibition at 30 µM [2] [%] |
| --- | --- | --- |
| CN(CC(=O)N1CCCc2c(O)nc(-c3ccccn3)nc21)S(=O)(=O)c1ccccc1 [drawing 2074] | 0 | 1 to 25 |
| O=C(c1ccc2ccccc2n1)N1CCCc2c(O)nc(-c3ccccn3)nc21 [drawing 2075] | 1 to 25 | 76 to 100 |
| O=C(c1ccn(-c2ccccc2)n1)N1CCCc2c(O)nc(-c3ccccn3)nc21 [drawing 2076] | 26 to 50 | 76 to 100 |
| CS(=O)(=O)N1CCCc2cc(C(=O)N3CCCc4c(O)nc(-c5ccccn5)nc43)ccc21 [drawing 2077] | 1 to 25 | 76 to 100 |
| O=C(c1ccc(=O)[nH]n1)N1CCCc2c(O)nc(-c3ccccn3)nc21 [drawing 2078] | 1 to 25 | 76 to 100 |
| CS(=O)(=O)c1cccc(C(=O)N2CCCc3c(O)nc(-c4ccccn4)nc32)c1 [drawing 2079] | 0 | 51 to 75 |
| COCCCC(=O)N1CCCc2c(O)nc(-c3ccccn3)nc21 [drawing 2080] | 1 to 25 | 76 to 100 |
| O=C(c1cocn1)N1CCCc2c(O)nc(-c3ccccn3)nc21 [drawing 2081] | 1 to 25 | 1 to 25 |
| CS(=O)(=O)CCCC(=O)N1CCCc2c(O)nc(-c3ccccn3)nc21 [drawing 2082] | 0 | 26 to 50 |
| O=S(=O)(CCc1ccccc1)N1CCCc2c(O)nc(-c3ccccn3)nc21 [drawing 2083] | 0 | 26 to 50 |
| O=S(=O)(c1ccccc1)N1CCCc2c(O)nc(-c3ccccn3)nc21 [drawing 2084] | 1 to 25 | 0 |
| O=C(OCCc1ccccc1)N1CCCc2c(O)nc(-c3ccccn3)nc21 [drawing 2085] | 26 to 50 | 76 to 100 |
| O=C(CC(c1ccccc1)c1ccccc1)N1CCCc2c(O)nc(-c3ccccn3)nc21 [drawing 2086] | 0 | 26 to 50 |
| O=C(c1ccccn1)N1CCCc2c(O)nc(-c3ccccn3)nc21 [drawing 2087] | 1 to 25 | 1 to 25 |
| O=C(CCCc1cccnc1)N1CCCc2c(O)nc(-c3ccccn3)nc21 [drawing 2088] | 1 to 25 | 76 to 100 |
| Nc1nc(O)c2scc(Br)c2n1 [drawing 2089] | 1 to 25 | 1 to 25 |
| COCC1CCN(C(=O)c2csc3c(O)nc(N)nc23)CC1 [drawing 2090] | 1 to 25 | 1 to 25 |
| CCOCCC1CCN(C(=O)c2csc3c(O)nc(N)nc23)CC1 [drawing 2091] | 1 to 25 | 0 |
| COCCCC1CCN(C(=O)c2csc3c(O)nc(N)nc23)CC1 [drawing 2092] | 1 to 25 | 0 |
| Nc1nc(O)c2scc(C(=O)N3CCC(N4CCOCC4)CC3)c2n1 [drawing 2093] | 1 to 25 | 0 |
| Nc1nc(O)c2scc(C(=O)N3CCC(N4CCCC4=O)CC3)c2n1 [drawing 2094] | 0 | 1 to 25 |
| CCOC(=O)NC1CCN(C(=O)c2csc3c(O)nc(N)nc23)CC1 [drawing 2095] | 1 to 25 | 0 |

| Structure (SMILES) | inhibition at 30 µM [1] [%] | inhibition at 30 µM [2] [%] |
| --- | --- | --- |
| Nc1nc(O)c2scc(C(=O)N(CCO)CCOCCO)c2n1 [drawing 2096] | 0 | 1 to 25 |
| Nc1nc(O)c2scc(C(=O)NCCc3cccnc3)c2n1 [drawing 2098] | 1 to 25 | 1 to 25 |
| COc1cc2c(cc1OC)CCN(C(=O)c1csc3c(O)nc(N)nc13)CC2 [drawing 2099] | 1 to 25 | 1 to 25 |
| Oc1nc(-c2ccccn2)nc2c(Br)csc12 [drawing 2100] | 76 to 100 | 76 to 100 |
| CC1CCN(C(=O)c2csc3c(O)nc(-c4ccccn4)nc23)CC1 [drawing 2101] | 0 | 26 to 50 |
| COCC1CCN(C(=O)c2csc3c(O)nc(-c4ccccn4)nc23)CC1 [drawing 2102] | 1 to 25 | 76 to 100 |
| CCOCCC1CCN(C(=O)c2csc3c(O)nc(-c4ccccn4)nc23)CC1 [drawing 2103] | 1 to 25 | 76 to 100 |
| COCCCC1CCN(C(=O)c2csc3c(O)nc(-c4ccccn4)nc23)CC1 [drawing 2104] | 1 to 25 | 51 to 75 |
| O=C(c1csc2c(O)nc(-c3ccccn3)nc12)N1CCC(N2CCOCC2)CC1 [drawing 2105] | 0 | 1 to 25 |
| O=C(c1csc2c(O)nc(-c3ccccn3)nc12)N1CCC(N2CCCC2=O)CC1 [drawing 2106] | 26 to 50 | 1 to 25 |
| O=C(c1csc2c(O)nc(-c3ccccn3)nc12)N1CCN(c2ccncc2)CC1 [drawing 2108] | 0 | 1 to 25 |
| O=C(c1csc2c(O)nc(-c3ccccn3)nc12)N1CCC(c2cccnc2)CC1 [drawing 2109] | 1 to 25 | 76 to 100 |
| CC1(O)CCN(C(=O)c2csc3c(O)nc(-c4ccccn4)nc23)CC1 [drawing 2110] | 0 | 51 to 75 |
| CC1(N)CCN(C(=O)c2csc3c(O)nc(-c4ccccn4)nc23)CC1 [drawing 2111] | 0 | 1 to 25 |
| CCOC(=O)NC1CCN(C(=O)c2csc3c(O)nc(-c4ccccn4)nc23)CC1 [drawing 2112] | 0 | 51 to 75 |
| COCCOCCN(C)C(=O)c1csc2c(O)nc(-c3ccccn3)nc12 [drawing 2113] | 0 | 26 to 50 |
| CN(CCc1ccncc1)C(=O)c1csc2c(O)nc(-c3ccccn3)nc12 [drawing 2114] | 0 | 51 to 75 |
| O=C(NCCc1cccnc1)c1csc2c(O)nc(-c3ccccn3)nc12 [drawing 2115] | 0 | 26 to 50 |
| O=C(c1csc2c(O)nc(-c3ccccn3)nc12)N1CCc2ccccc2CC1 [drawing 2116] | 0 | 51 to 75 |
| COc1cc2c(cc1OC)CCN(C(=O)c1csc3c(O)nc(-c4ccccn4)nc13)CC2 [drawing 2117] | 1 to 25 | 26 to 50 |
| Nc1nc(O)c2scc(-c3ccccc3)c2n1 [drawing 2118] | 0 | 1 to 25 |
| Nc1nc(O)c2scc(-c3ccccc3Cl)c2n1 [drawing 2119] | 0 | 26 to 50 |
